The values below come from patent US20020128269A1, “Substituted heterocyclic compounds for treating multidrug resistance” (priority 2000, published 2002).

This experiment deals with NIH-MDR1-G185 cells. The experiment can be described thus: Fluorescent Substrate Accumulation Assay (BODIPY-FL Taxol accumulation). The experiment is classed as cell-based. The note with it: fluorescence in NIH-MDR1-G185 cells in presence / absence of modulator; BODIPY-FL Taxol 500 nM, 40 min at 37° C; modulator final concentration of 10 microliters (so in the source). Here is the method: NIH-MDR1-G185 cells (obtained from M. Gottesman, NIH) were harvested and resuspended in RPMI-1640 containing L-glutamine, 10% Cosmic Calf Serum and penicillin-streptomycin. Cell suspension aliquots of 175 microliters (1×10^5 cells) were added to individual wells of a 96 well microtiter plate and preincubated for 15 min at 37° C with 20 microliters MDR modulator diluted in cell culture media to give a final concentration of 10 microliters. Control wells received no modulating agent. BODIPY-FL Taxol (Molecular Probes, Eugene, Oreg.) was added to each well in 10 microliter aliquots to give a final concentration of 500 nM and cells were incubated for 40 min at 37° C. Cells were centrifuged at 100× g for 5 min at 4° C. and the cell pellet washed with 200 microliters cold PBS to remove fluorescent medium from wells. Cells were centrifuged once more, media removed, and cells resuspended in 200 microliters cold PBS. Fluorescence accumulation was measured in a fluorescence plate reader fitted with an excitation filter of 485 nm and an emission filter of 538 nm. BODIPY-FL taxol accumulation in the cells was calculated as follows:
Accumulation Index=(fluorescence in NIH-MDR1-G185 cells in the presence of modulator )/(fluorescence in NIH-MDR1-G185 cells in absence of modulator)
Accumulation Index of various compounds prepared above was tested according to the method in Reference Example 3.

Regarding `O=C(NC(CCCc1ccccc1)CCCc1ccccc1)C1CN(C[C@@H](O)COc2cccc3ncccc23)CCN1C(=O)COCc1ccccc1` (stereo partly drawn) [Compound 38, 1-(Benzyloxyacetyl)-4-{1-[2-(R)-hydroxy-3-(quinolin-5-yloxy)-propyl]}-piperazine-2-carboxylic Acid [4-phenyl-1-(3-phenyl-propyl)-butyl]-amide], the “Accumulation Index” value is recorded as 5.
